From publication PMC9516332 (Frontiers in Oncology, 2022)
Like-named read-outs stand apart in the source and are kept apart here.

Tests used:
134 cancer cell lines = test: Cell viability assay (ATPlite, 72 hours), IC50 on cancer cell line panel
AP-1060 (ETV6-NTRK3) = test: Cell viability assay; conditions: read-out: IC50 in cell proliferation assay

Measured: IC50

CCCS(=O)(=O)Nc1ccc(F)c(C(=O)c2c[nH]c3ncc(-c4ccc(Cl)cc4)cc23)c1F [vemurafenib]
3.08 µM: 134 cancer cell lines; read-out: IC50 in cell proliferation assay, cell line RKO (BRAF p.V600E)
> 31.6 µM: 134 cancer cell lines; Homo sapiens, MeWo, read-out: IC50 in cell proliferation assay, MeWo cell line | 134 cancer cell lines; Homo sapiens, NCI-H661, read-out: IC50 in cell proliferation assay, NCI-H661 cell line | 134 cancer cell lines; Homo sapiens, NCI-H716, read-out: IC50 in cell proliferation assay, cell line NCI-H716 (FGFR2-COL14A1) | 134 cancer cell lines; Homo sapiens, NCI-H1650, read-out: IC50 in cell proliferation assay, NCI-H1650 cell line (EGFR exon19del) | 134 cancer cell lines; Homo sapiens, NCI-H1975, read-out: IC50 in cell proliferation assay, NCI-H1975 cell line (EGFR p.L858R + p.T790M) | 134 cancer cell lines; Homo sapiens, NCI-H2228, read-out: IC50 in cell proliferation assay, NCI-H2228 cell line (EML4-ALK) | 134 cancer cell lines; Homo sapiens, OVCAR-3, read-out: IC50 in cell proliferation assay, cell line OVCAR-3 | 134 cancer cell lines; Homo sapiens, PFSK-1, read-out: IC50 in cell proliferation assay, cell line PFSK-1 | 134 cancer cell lines; Homo sapiens, RL95-2, read-out: IC50 in cell proliferation assay, cell line RL95-2 (EGFR p.A289V) | 134 cancer cell lines; Homo sapiens, RS4-11, read-out: IC50 in cell proliferation assay, cell line RS4;11 | 134 cancer cell lines; Homo sapiens, SHP77, read-out: IC50 in cell proliferation assay, cell line SHP-77 | 134 cancer cell lines; Homo sapiens, SK-BR-3, read-out: IC50 in cell proliferation assay, cell line SK-BR-3 (ERBB2 amplification) | 134 cancer cell lines; Homo sapiens, SK-N-AS, read-out: IC50 in cell proliferation assay, cell line SK-N-AS | 134 cancer cell lines; Homo sapiens, SK-N-FI, read-out: IC50 in cell proliferation assay, cell line SK-N-FI | 134 cancer cell lines; Homo sapiens, SK-N-MC, read-out: IC50 in cell proliferation assay, cell line SK-N-MC | 134 cancer cell lines; Homo sapiens, SK-N-SH, read-out: IC50 in cell proliferation assay, cell line SK-N-SH (ALK p.F1174L) | 134 cancer cell lines; Homo sapiens, SNU-16, read-out: IC50 in cell proliferation assay, cell line SNU-16 (FGFR2 amplification) | 134 cancer cell lines; Homo sapiens, SNU-C2B, read-out: IC50 in cell proliferation assay, cell line SNU-C2B (EGFR p.R165Q) | 134 cancer cell lines; Homo sapiens, SU-DHL-6, read-out: IC50 in cell proliferation assay, cell line SU-DHL-6 | 134 cancer cell lines; Homo sapiens, SUP-T1, read-out: IC50 in cell proliferation assay, cell line SUP-T1 | 134 cancer cell lines; Homo sapiens, SW48, read-out: IC50 in cell proliferation assay, cell line SW48 (EGFR p.G719S) | 134 cancer cell lines; Homo sapiens, SW480, read-out: IC50 in cell proliferation assay, cell line SW480 | 134 cancer cell lines; Homo sapiens, SW626, read-out: IC50 in cell proliferation assay, cell line SW626 | 134 cancer cell lines; Homo sapiens, SW780, read-out: IC50 in cell proliferation assay, cell line SW780 (FGFR3-BAIAP2L1) | 134 cancer cell lines; Homo sapiens, SW837, read-out: IC50 in cell proliferation assay, cell line SW837 | 134 cancer cell lines; Homo sapiens, SW948, read-out: IC50 in cell proliferation assay, cell line SW948 | 134 cancer cell lines; Homo sapiens, SW-620, read-out: IC50 in cell proliferation assay, cell line SW620 | 134 cancer cell lines; Homo sapiens, TCC-SUP, read-out: IC50 in cell proliferation assay, cell line TCCSUP | 134 cancer cell lines; Homo sapiens, THP-1, read-out: IC50 in cell proliferation assay, cell line THP-1 | 134 cancer cell lines; Homo sapiens, U2OS, read-out: IC50 in cell proliferation assay, cell line U2OS | 134 cancer cell lines; Homo sapiens, U-87 MG, read-out: IC50 in cell proliferation assay, cell line U-87MG ATCC | 134 cancer cell lines; Homo sapiens, U-118-MG, read-out: IC50 in cell proliferation assay, cell line U-118MG | 134 cancer cell lines; Homo sapiens, UMUC3, read-out: IC50 in cell proliferation assay, cell line UM-UC-3 | 134 cancer cell lines; Hs766T, read-out: IC50 in cell proliferation assay, Hs 766T cell line | 134 cancer cell lines; Rh30, read-out: IC50 in cell proliferation assay, cell line Rh30 | 134 cancer cell lines; read-out: IC50 in cell proliferation assay, 11-18 cell line (EGFR p.L858R) | 134 cancer cell lines; read-out: IC50 in cell proliferation assay, Hs 852.T cell line | 134 cancer cell lines; read-out: IC50 in cell proliferation assay, cell line A-388 | 134 cancer cell lines; read-out: IC50 in cell proliferation assay, cell line DEL (NPM1-ALK) | 134 cancer cell lines; read-out: IC50 in cell proliferation assay, cell line PC-3 | 134 cancer cell lines; read-out: IC50 in cell proliferation assay, cell line RD | 134 cancer cell lines; read-out: IC50 in cell proliferation assay, cell line RT-4 (FGFR3-TACC3) | 134 cancer cell lines; read-out: IC50 in cell proliferation assay, cell line TT (RET p.C634W) | 134 cancer cell lines; read-out: IC50 in cell proliferation assay, cell line VA-ES-BJ
24.8 µM: 134 cancer cell lines; read-out: IC50 in cell proliferation assay, cell line RL
19.1 µM: 134 cancer cell lines; Homo sapiens, T98G, read-out: IC50 in cell proliferation assay, cell line T98G
22.3 µM: 134 cancer cell lines; Homo sapiens, SW982, read-out: IC50 in cell proliferation assay, cell line SW982 (BRAF p.V600E)
26.9 µM: 134 cancer cell lines; Homo sapiens, NCI-H460, read-out: IC50 in cell proliferation assay, NCI-H460 cell line
26.8 µM: 134 cancer cell lines; L-82, read-out: IC50 in cell proliferation assay, L-82 cell line (NPM1-ALK)
24.5 µM: 134 cancer cell lines; read-out: IC50 in cell proliferation assay, cell line DB
31.2 µM: 134 cancer cell lines; Homo sapiens, MV4-11, read-out: IC50 in cell proliferation assay, MV4-11 cell line (FLT3 ITD)
14.7 µM: 134 cancer cell lines; read-out: IC50 in cell proliferation assay, JAR cell line
1.15 µM: 134 cancer cell lines; Homo sapiens, SW872, read-out: IC50 in cell proliferation assay, cell line SW872 (BRAF p.V600E)
31.6 µM: AP-1060 (ETV6-NTRK3)
8.15 µM: 134 cancer cell lines; Homo sapiens, Rec1, read-out: IC50 in cell proliferation assay, cell line REC-1
26.7 µM: 134 cancer cell lines; Homo sapiens, SW900, read-out: IC50 in cell proliferation assay, cell line SW900
25.5 µM: 134 cancer cell lines; Homo sapiens, NCCIT, read-out: IC50 in cell proliferation assay, NCC-IT cell line
22.8 µM: 134 cancer cell lines; Homo sapiens, NCI-H82, read-out: IC50 in cell proliferation assay, cell line NCI-H82
15.7 µM: 134 cancer cell lines; Homo sapiens, RPMI-7951, read-out: IC50 in cell proliferation assay, cell line RPMI-7951 (BRAF p.V600E) | 134 cancer cell lines; read-out: IC50 in cell proliferation assay, cell line PA-1
23.5 µM: 134 cancer cell lines; Homo sapiens, SU-DHL-1, read-out: IC50 in cell proliferation assay, cell line SU-DHL-1 (NPM1-ALK)
25.1 µM: 134 cancer cell lines; read-out: IC50 in cell proliferation assay, cell line 5637
30.7 µM: 134 cancer cell lines; read-out: IC50 in cell proliferation assay, cell line T24
2.33 µM: 134 cancer cell lines; read-out: IC50 in cell proliferation assay, cell line ES-2 (BRAF p.V600E)
31.4 µM: 134 cancer cell lines; Homo sapiens, SNU-5, read-out: IC50 in cell proliferation assay, cell line SNU-5 (MET amplification)
